Assay results reported in patent US20240197726A1, “NOVEL TETRAHYDROISOQUINOLINE ALKALOID COMPOUND CONTAINING MACROCYCLE” (THE UNIVERSITY OF TOKYO, priority 2021, published 2024).
Like-named read-outs stand apart in the source and are kept apart here.

Tests used:
Format in all cases: cell-based
[1] = tested on: BSY-1 breast cancer cells; test: antitumor activity, sulforhodamine B cell growth assay, BSY-1
Description: (§1) The THIQ compound containing a macrocyclic structure of the present invention was administered to various cancer cell lines, and the antitumor activity (Go value) was observed. Specifically, verification was performed according to the literature (Yamori, T.; Matsunaga, A.; Sato, S.; Yamazaki, K.; Komi, A.; Ishizu, K. et al. Cancer Res. 1999, 59, 4042) by the following procedure.
(§2) Cells were plated at an appropriate density in a 96-well plate in RPMI 1640 together with 5% fetal bovine serum, and adhered overnight. The cells were exposed to a drug for 48 hours. Then, according to the sulforhodamine B assay described by Skehan et al (Skehan P., Storeng R., Scudiero D., Monks A., McMahon J., Vistica D., Warren J. T., Bokesch H., Kenney S., Boyd M. R. J Natl. Cancer Inst, 1990, 82, 1107-1112), the cell growth rate was measured. The absorbance of the control well (C) and the test well (T) was measured at 525 nm. In addition, the time at which the drug was added was set as time 0, and the absorbance for the test well (T0) was measured. Using these measured values, the cell growth inhibitory effect (% growth=PG) was calculated by the following formula at each concentration of the drug.
(§3) (T<T0): PG=100×[(T−T0)/T]
(§4) The PG values determined above for each cell line were plotted against the concentration (logarithm) on a semi-logarithmic graph, and summarized for each visceral cancer. Concentrations at which the dose-response curve of each cell line crossed the horizontal line of PG=50%, 0%, or −50% were calculated. These concentrations were defined as Log GI50, Log TGI, and Log LC50. Actually, using two data points of the drug concentration before and after crossing each horizontal line, the drug concentration (logarithmic value) at the intersection of the straight line connecting the two points and the horizontal line for each PG was calculated.

[2] = tested on: MCF-7 breast cancer cells; test: antitumor activity, sulforhodamine B cell growth assay, MCF-7
Description: as §1, §2, §3, §4

[3] = tested on: SF-539 central nervous system cancer cells; test: antitumor activity, sulforhodamine B cell growth assay, SF-539
Description: as §1, §2, §3, §4

[4] = tested on: SNB-75 central nervous system cancer cells; test: antitumor activity, sulforhodamine B cell growth assay, SNB-75
Description: as §1, §2, §3, §4

[5] = tested on: KM-12 colorectal cancer cells; test: antitumor activity, sulforhodamine B cell growth assay, KM-12
Description: as §1, §2, §3, §4

[6] = tested on: HCT-116 colorectal cancer cells; test: antitumor activity, sulforhodamine B cell growth assay, HCT-116
Description: as §1, §2, §3, §4

[7] = tested on: NCI-H226 lung cancer cells; test: antitumor activity, sulforhodamine B cell growth assay, NCI-H226
Description: as §1, §2, §3, §4

[8] = tested on: A549 lung cancer cells; test: antitumor activity, sulforhodamine B cell growth assay, A549
Description: as §1, §2, §3, §4

[9] = tested on: DMS114 lung cancer cells; test: antitumor activity, sulforhodamine B cell growth assay, DMS114
Description: as §1, §2, §3, §4

[10] = tested on: OVCAR-3 cancer cells; test: antitumor activity, sulforhodamine B cell growth assay, OVCAR-3
Description: as §1, §2, §3, §4

[11] = tested on: OVCAR-8 cancer cells; test: antitumor activity, sulforhodamine B cell growth assay, OVCAR-8
Description: as §1, §2, §3, §4

[12] = tested on: St-4 gastric cancer cells; test: antitumor activity, sulforhodamine B cell growth assay, St-4
Description: as §1, §2, §3, §4

[13] = tested on: MKN1 gastric cancer cells; test: antitumor activity, sulforhodamine B cell growth assay, MKN1
Description: as §1, §2, §3, §4

[14] = tested on: MKN-B gastric cancer cells; test: antitumor activity, sulforhodamine B cell growth assay, MKN-B
Description: as §1, §2, §3, §4

[15] = tested on: MKN-A gastric cancer cells; test: antitumor activity, sulforhodamine B cell growth assay, MKN-A
Description: as §1, §2, §3, §4

[16] = tested on: MKN45 gastric cancer cells; test: antitumor activity, sulforhodamine B cell growth assay, MKN45
Description: as §1, §2, §3, §4

[17] = tested on: MKN74 gastric cancer cells; test: antitumor activity, sulforhodamine B cell growth assay, MKN74
Description: as §1, §2, §3, §4

[18] = tested on: PC-3 prostate cancer cells; test: antitumor activity, sulforhodamine B cell growth assay, PC-3
Description: as §1, §2, §3, §4

[19] = BSY-1, drug exposure 48 hours, read-out: GI50 value: 50% growth inhibitory concentration
[20] = St-4 (SI-4 in Tables 2-11), drug exposure 48 hours, read-out: GI50 value: 50% growth inhibitory concentration
[21] = MKN-B, drug exposure 48 hours, read-out: GI50 value: 50% growth inhibitory concentration
[22] = MKN-A, drug exposure 48 hours, read-out: GI50 value: 50% growth inhibitory concentration
[23] = PC-3, drug exposure 48 hours, read-out: GI50 value: 50% growth inhibitory concentration

CC1=C(C)C(=O)C2=C(CC3(C)[C@H]4c5c(cc(C)c(C)c5C)C[C@@](C)(C(C)N3[C@H]2CNC(=O)C(C)C)N4C)C1=O (stereo partly drawn) [drawing 160]
GI50 ([1]; BSY-1 breast cancer cells, read-out: antitumor activity GI50 value: 50% growth inhibitory concentration): 34 nM | GI50 ([2]; Homo sapiens, MCF7, MCF-7 breast cancer cells, read-out: antitumor activity GI50 value: 50% growth inhibitory concentration): 52 nM | GI50 ([3]; Homo sapiens, SF-539 central nervous system cancer cells, read-out: antitumor activity GI50 value: 50% growth inhibitory concentration): 180 nM | GI50 ([4]; Homo sapiens, SNB-75 central nervous system cancer cells, read-out: antitumor activity GI50 value: 50% growth inhibitory concentration): 150 nM | GI50 ([5]; Homo sapiens, KM12, KM-12 colorectal cancer cells, read-out: antitumor activity GI50 value: 50% growth inhibitory concentration): 530 nM | GI50 ([6]; Homo sapiens, HCT-116 colorectal cancer cells, read-out: antitumor activity GI50 value: 50% growth inhibitory concentration): 290 nM | GI50 ([7]; Homo sapiens, NCI-H226, NCl-H226 lung cancer cells, read-out: antitumor activity GI50 value: 50% growth inhibitory concentration): 310 nM | GI50 ([8]; Homo sapiens, A549 lung cancer cells, read-out: antitumor activity GI50 value: 50% growth inhibitory concentration): 1600 nM | GI50 ([9]; Homo sapiens, DMS-114, DMS114 lung cancer cells, read-out: antitumor activity GI50 value: 50% growth inhibitory concentration): 35 nM | GI50 ([10]; Homo sapiens, OVCAR-3 cervical cancer cells, read-out: antitumor activity GI50 value: 50% growth inhibitory concentration): 130 nM | GI50 ([11]; Homo sapiens, OVCAR-8 cervical cancer cells, read-out: antitumor activity GI50 value: 50% growth inhibitory concentration): 290 nM | GI50 ([12]; SI-4 gastric cancer cells, read-out: antitumor activity GI50 value: 50% growth inhibitory concentration): 430 nM | GI50 ([13]; Homo sapiens, MKN-1, MKN1 gastric cancer cells, read-out: antitumor activity GI50 value: 50% growth inhibitory concentration): 52 nM | GI50 ([14]; MKN-B gastric cancer cells, read-out: antitumor activity GI50 value: 50% growth inhibitory concentration): 170 nM | GI50 ([15]; MKN-A gastric cancer cells, read-out: antitumor activity GI50 value: 50% growth inhibitory concentration): 250 nM | GI50 ([16]; Homo sapiens, MKN-45, MKN45 gastric cancer cells, read-out: antitumor activity GI50 value: 50% growth inhibitory concentration): 300 nM | GI50 ([17]; Homo sapiens, MKN-74, MKN74 gastric cancer cells, read-out: antitumor activity GI50 value: 50% growth inhibitory concentration): 310 nM | GI50 ([18]; PC-3 prostate cancer cells, read-out: antitumor activity GI50 value: 50% growth inhibitory concentration): 290 nM

C#CCN1C/C=C/C(=C)COc2c(C)c3c(c4c2C[C@H]2[C@H]5c6c(cc(C)c(OC)c6O)C[C@@H]([C@H](C#N)N2C4CNC(=O)[C@@H]1C)N5C)OCO3 [Compound 35]
GI50 [1, 19]: 1.3 nM | GI50 ([2]; Homo sapiens, MCF7, MCF-7, drug exposure 48 hours, read-out: GI50 value: 50% growth inhibitory concentration): 0.87 nM | GI50 ([3]; Homo sapiens, SF-539, drug exposure 48 hours, read-out: GI50 value: 50% growth inhibitory concentration): 2.2 nM | GI50 ([4]; Homo sapiens, SNB-75, drug exposure 48 hours, read-out: GI50 value: 50% growth inhibitory concentration): 1.7 nM | GI50 ([5]; Homo sapiens, KM12, KM-12, drug exposure 48 hours, read-out: GI50 value: 50% growth inhibitory concentration): 3.8 nM | GI50 ([6]; Homo sapiens, HCT-116, drug exposure 48 hours, read-out: GI50 value: 50% growth inhibitory concentration): 2.7 nM | GI50 ([7]; Homo sapiens, NCI-H226, drug exposure 48 hours, read-out: GI50 value: 50% growth inhibitory concentration): 2.7 nM | GI50 ([8]; Homo sapiens, A549, drug exposure 48 hours, read-out: GI50 value: 50% growth inhibitory concentration): 7.2 nM | GI50 ([9]; Homo sapiens, DMS-114, DMS114, drug exposure 48 hours, read-out: GI50 value: 50% growth inhibitory concentration): 1.2 nM | GI50 ([10]; Homo sapiens, OVCAR-3, drug exposure 48 hours, read-out: GI50 value: 50% growth inhibitory concentration): 3.2 nM | GI50 ([11]; Homo sapiens, OVCAR-8, drug exposure 48 hours, read-out: GI50 value: 50% growth inhibitory concentration): 3.1 nM | GI50 [12, 20]: 3.8 nM | GI50 ([13]; Homo sapiens, MKN-1, MKN1, drug exposure 48 hours, read-out: GI50 value: 50% growth inhibitory concentration): 2.7 nM | GI50 [14, 21]: 3.5 nM | GI50 [15, 22]: 3.7 nM | GI50 ([16]; Homo sapiens, MKN-45, MKN45, drug exposure 48 hours, read-out: GI50 value: 50% growth inhibitory concentration): 2.7 nM | GI50 ([17]; Homo sapiens, MKN-74, MKN74, drug exposure 48 hours, read-out: GI50 value: 50% growth inhibitory concentration): 4.5 nM | GI50 [18, 23]: 3.3 nM

COc1c(C)cc2c(c1O)C1C3Cc4c5c(C)c6c(c4C(CNC(=O)C(C)NCC=CCO5)N3C(C#N)C(C2)N1C)OCO6 (stereo not drawn) [Compound 42]
GI50 [1, 19]: < 10 nM | GI50 ([2]; MCF-7, drug exposure 48 hours, read-out: GI50 value: 50% growth inhibitory concentration): < 10 nM | GI50 ([3]; SF-539, drug exposure 48 hours, read-out: GI50 value: 50% growth inhibitory concentration): 17 nM | GI50 ([4]; SNB-75, drug exposure 48 hours, read-out: GI50 value: 50% growth inhibitory concentration): < 10 nM | GI50 ([5]; KM-12, drug exposure 48 hours, read-out: GI50 value: 50% growth inhibitory concentration): 19 nM | GI50 ([6]; HCT-116, drug exposure 48 hours, read-out: GI50 value: 50% growth inhibitory concentration): 21 nM | GI50 ([7]; NCI-H226, drug exposure 48 hours, read-out: GI50 value: 50% growth inhibitory concentration): 30 nM | GI50 ([8]; A549, drug exposure 48 hours, read-out: GI50 value: 50% growth inhibitory concentration): 110 nM | GI50 ([9]; DMS114, drug exposure 48 hours, read-out: GI50 value: 50% growth inhibitory concentration): < 10 nM | GI50 ([10]; OVCAR-3, drug exposure 48 hours, read-out: GI50 value: 50% growth inhibitory concentration): 15 nM | GI50 ([11]; OVCAR-8, drug exposure 48 hours, read-out: GI50 value: 50% growth inhibitory concentration): 34 nM | GI50 [12, 20]: 37 nM | GI50 ([13]; MKN1, drug exposure 48 hours, read-out: GI50 value: 50% growth inhibitory concentration): 18 nM | GI50 [14, 21]: 25 nM | GI50 [15, 22]: 36 nM | GI50 ([16]; MKN45, drug exposure 48 hours, read-out: GI50 value: 50% growth inhibitory concentration): 16 nM | GI50 ([17]; MKN74, drug exposure 48 hours, read-out: GI50 value: 50% growth inhibitory concentration): 35 nM | GI50 [18, 23]: 40 nM
